Source: patent US20240358692A1, “TREATMENT OF SCLERODERMA” (Aisa Pharma, Inc., priority 2023, published 2024)

Key:
[1] = tested on: participants with SSc-RP; assay: Frequency of weekly RP attacks (all attacks; primary endpoint), patient diary; format: in vivo, human; conditions: ITT Part A
Source text: Percent change from baseline evaluation for frequency of weekly RP attacks were or will be used as the primary efficacy variable. The sponsor-developed participant-informed diary will be used to record data. Frequency of weekly RP attacks is defined as the total number of RP attacks divided by the number of days with available diary data within the last 7 days of each dosing period then multiplied by 7. Total number of RP attacks during the last 7 days of screening period divided by the number of days with available data then multiplied by 7 will be used as baseline for the analysis of all periods. The variable will be calculated as follows: […]
Percent change from baseline evaluation for frequency of weekly RP attacks was and will be the primary efficacy endpoint. Frequency of weekly RP attacks is defined as the total number of RP attacks divided by the number of days with available diary data within the last 7 days of each dosing period then multiplied by 7. Total number of RP attacks during the last 7 days of screening period divided by the number of days with available data then multiplied by 7 will be used as baseline for the analysis of all periods.

[2] = tested on: participants with SSc-RP; assay: SHAQ - Visual Analog Scale - Intestinal Problems; format: in vivo, human; parameters: Visual Analog Scale-Intestinal Problems, In Clinic Visit (Day 12), Mean / Visual Analog Scale-Intestinal Problems, In Clinic Visit (Day 12), Median / Visual Analog Scale-Intestinal Problems, Change from Baseline, Mean / Visual Analog Scale-Intestinal Problems, Change from Baseline, Median / SHAQ Visual Analogue Scale - Intestinal Problems, In-Clinic Visit (Day 12), Median: scale not given here
Source text: The standard, validated, patient reported outcome measures tool for SSc patients, the Scleroderma Health Assessment Questionnaire (SHAQ), will be used to assess the participant qualify of life. Details are attached in the Appendix. The participant quality of life will be scored, and a disability index calculated for each questionnaire completed by the patient at Screening and each in-clinic visit. The absolute change in participant quality of life from baseline to the end of each dosing period will be calculated similar to frequency data as before.
The standard, validated, patient reported outcome measures tool for SSc patients, the SHAQ, was collected at the time points specified in the study schedules (FIG. 2 and FIGS. 4A and 4B) to assess the participant's quality of life. The SHAQ included a Raynaud's VAS that will also be reported separately.

[3] = Tadalafil 5 mg, Baseline RCS stratum 2 (lower half of table)
[4] = tadalafil 5 mg daily, n=1, excluding outliers, last 7 days of dosing
[5] = tadalafil 5 mg daily, n=2, last 7 days of dosing
[6] = Modified ITT Population-Part A, Day 12, dose cilnidipine 10 mg, tadalafil 5 mg, alone or combined as labelled
[7] = Tadalafil 5 mg, SSc patients, PP, Part A

`CN1CC(=O)N2[C@H](c3ccc4c(c3)OCO4)c3[nH]c4ccccc4c3C[C@@H]2C1=O` [Tadalafil] was tested, and the “Weekly RP Attacks (All Attacks) Change from Baseline, Mean” value [1, 3] was 3.00, the “Weekly RP Attacks (All Attacks) Change from Baseline, Median” value [1, 3] was 3.00 and the “Weekly RP Attacks (All Attacks), Mean” value [1, 3] was 13.00. The “Weekly RP Attacks (All Attacks), Median” value [1, 3] was 13.00, the “Weekly RP Attacks (All Attacks) Change from Baseline, Mean” value [1, 4] was 6.00 and the “Weekly RP Attacks (All Attacks) Change from Baseline, Median” value [1, 4] was 6.00. The “Weekly RP Attacks (All Attacks), Mean” value [1, 4] was 19.00, the “Weekly RP Attacks (All Attacks), Median” value [1, 4] was 19.00 and the “Weekly RP Attacks (All Attacks) Change from Baseline, Mean” value [1, 5] was 3.00. The “Weekly RP Attacks (All Attacks) Change from Baseline, Median” value [1, 5] was 3.00, the “Weekly RP Attacks (All Attacks), Mean” value [1, 5] was 13.00 and the “Weekly RP Attacks (All Attacks), Median” value [1, 5] was 13.00. For the same molecule, the “Visual Analog Scale-Intestinal Problems, Change from Baseline, Median” value [2, 6] was 0.000, the “Visual Analog Scale-Intestinal Problems, Percent Change from Baseline, Median” value [2, 6] was 0.00% and the “SHAQ VAS Intestinal Problems, Change from Baseline, Max” value [2, 7] was 1.80. The “SHAQ VAS Intestinal Problems, Change from Baseline, Median” value [2, 7] was 0.000, the “SHAQ VAS Intestinal Problems, Change from Baseline, Min” value [2, 7] was −2.30, and the “SHAQ VAS Intestinal Problems, Change from Baseline, Q1” value [2, 7] was −1.150,. The “SHAQ VAS Intestinal Problems, Change from Baseline, Q3” value [2, 7] was 0.900, the “SHAQ VAS Intestinal Problems, Day 12, Max” value [2, 7] was 9.20 and the “SHAQ VAS Intestinal Problems, Day 12, Mean” value [2, 7] was 3.025. The “SHAQ VAS Intestinal Problems, Day 12, Median” value [2, 7] was 1.450, the “SHAQ VAS Intestinal Problems, Day 12, Min” value [2, 7] was 0.00, and the “SHAQ VAS Intestinal Problems, Day 12, Q1” value [2, 7] was 0.050,. The “SHAQ VAS Intestinal Problems, Day 12, Q3” value [2, 7] was 6.000, the “SHAQ VAS Intestinal Problems, Percent Change from Baseline, Max” value [2, 7] was 24.3 and the “SHAQ VAS Intestinal Problems, Percent Change from Baseline, Mean” value [2, 7] was −6.92. For the same molecule, the “SHAQ VAS Intestinal Problems, Percent Change from Baseline, Median” value [2, 7] was 0.00, the “SHAQ VAS Intestinal Problems, Percent Change from Baseline, Min” value [2, 7] was −45.1, and the “SHAQ VAS Intestinal Problems, Percent Change from Baseline, Q1” value [2, 7] was −45.10,. For the same molecule, the “SHAQ VAS Intestinal Problems, Percent Change from Baseline, Q3” value [2, 7] was 24.32.
